Results on 2 compounds are retold here after patent publication US20080242594A1, “Methods for Promoting Stem Cell Proliferation and Survival” (priority 2005, published 2008).

One test relates to Notch1. Kind of test: Notch activation (Notch1IC / Notch ICD) immunocytochemical detection. The test is classed as cell-based, mouse. The note with it: Insulin withdrawal, 2 days and then treat for 1 h. The text has this: Antibodies were used that specifically bind: Notch1IC (Chemicon, 5352), GFP (Molecular Probes, A11122), Oct3/4 (Santa Cruz, sc-5279), SSEA1 and SSEA4 (Developmental Studies HybridomaBank), Tra-1-60 (Chemicon, MAB4360), Tra-1-81 (Chemicon, MAB4381), human nestin (Chemicon, MAB5326), Sox-1 (Gift from Dr. R Lovell-Badge), TH (Pel-Freez, P40101-0), Tuj1 (Covance, MMS-435P), rat nestin (McKay Lab), GFAP (Dako, z0334), CNPase (Chemicon, MAB326), BrdU (Accurate, H5903), DCX (Santa Cruz, sc-8066), Sox2 (R&D, MAB2018), Hu (Molecular Probes, A21271).
To assay for Notch activation, cultures were treated with the Notch ligands for 1 hour and Notch1 activation was detected by immunocytochemical staining of Notch1IC (FIG. 1b).
It was determined that insulin facilitates Notch cleavage using immunocytochemical detection.

For test [1], the system named is adult rat subventricular zone (SVZ). Nature of the test: Dividing (BrdU+) cells in SVZ after single lateral ventricle injection. The test is classed as in vivo. As to conditions: BrdU for 3 days, sacrificed on the 5th day. Here is the method: In vivo, Notch and insulin also increase the number of dividing cells in the adult rat subventricular zone (SVZ) 5 days after a single injection It was determined that Notch and insulin co-operate to promote new (BrdU+) cells in vivo. Specifically, the reagents infused in the lateral ventricle of adult rats as a single injection. The rats were then given BrdU for 3 days and sacrificed on the 5th day (Table 10).

Test [2] relates to Primary human central nervous system neural stem cell from pediatric subventricular zones. Kind of test: Colony generation of primary human neural stem cells. The class given is cell-based. As to conditions: expanded in FGF2. The text has this:
Pharmacological Notch activation is beneficial also to primary neural stem cell cultures from non-cancerous human brain. Primary human central nervous system neural stem cell were produced from pediatric subventricular zones. These cells expanded in FGF2, and upon FGF2 withdrawal differentiated to produce colonies containing neurons, astrocytes, and oligodendrocytes (see Table 11). […] FGF2 withdrawal and subsequent differentiation of central nervous system neural stem cell cultures (fetal mouse) regulated Hes3 expression and STAT3 expression and phosphorylation in neurons, astrocytes, oligodendrocytes.

Another test concerns HSF6 hES cells. Nature of the test: hES self-renewal over 3 passages. The note with it: 3 passages (3 weeks), daily treatments. The test is classed as cell-based, human. From the text: To assess whether JAK inhibition was consistent with self-renewal of hES cells, HSF6 cells were continuously exposed to the JAK inhibitor by daily additions for three passages as single cells (three weeks) and analyzed for expression of antigens that distinguish the undifferentiated and differentiated states. The cells exposed to the drug, like the FGF2 controls, had normal morphology, were positive for Oct3/4, SSEA4, Tra-1-60, and Tra-1-81, and negative for SSEA1 (FIG. 5f, FIG. 11). To assess their ability to differentiate into neural precursors, embryoid bodies (EBs) were generated and many Sox1+/Nestin+ cells obtained (FIG. 11). Finally, to assess that the cells retained their ability to generate TH+ neurons, direct differentiation protocols were performed; a high proportion of TH+/TUJ1+ cells were obtained (FIG. 5g).

The test system of the next test is H9 hES cells. Nature of the test: hES colony number formation, H9. The test is classed as cell-based, human. As to conditions: H9 line. From the text: (§1) The human ES cell lines HSF-6 (University of California, San Francisco; NIH # UC06, Passage 38-120) and H1 and H9 (WiCell Research Institute, NIH # WA01 and […]) were maintained on mouse embryonic fibroblasts (MEF) according to the suppliers' protocols. Immunocytochemistry and FACS analysis for the expression of Oct4 and SSEA4 and SKY karyotyping established that the starting cells are undifferentiated and have a normal set of chromosomes. For single cell survival experiments, hES colonies were harvested after treatment with 1.5 mg/ml collagenase type IV (Invitrogen), separated from the MEF feeder cells by repeated washing by gravity, gently triturated to break up colonies into small aggregates, further dissociated into a single cell solution by trypsination (0.05% trypsin/0.04% EDTA) and transferred on MEF feeder cells at a density of 10000 cells/ml. Oct-4 positive colonies were counted six days after plating. […]
(§2) The pro-survival effects of activation of Notch and inhibition of JAK was tested on HSF-6 (NIH code UC06, http://escell.ucsf.edu), H1 (NIH code WA01, www.wicell.org) and H9 (NIH code WA09, www.wicell.org) hES cells. Singly dissociated hES cells were plated on mouse embryo fibroblasts (MEFs), treated daily for one week and colony numbers counted. […]

For test [3], the system named is p38, SMAD1/5/8, MSK-1, STAT3 phosphorylation in hES cells. Nature of the test: Signalling immunoblots in hES cells. The note with it: absence of MEF, within one hour. Background: Immunoblotting shows a protein as a band on a membrane.
Experimental: Immunoblotting: Immunoblotting was performed as previously described (Panchision et al., Genes Dev 15:2094-110, 2001). The following antibodies were used in the experiments described below: pSer473-Akt (92715), pSer308-Akt (9275), pSer2448-mTOR (29715), pThr180/Tyr182-p38 (9211), pSMAD1/5/8 (9511) from Cell Signaling; STAT3 (482), pSer727-STAT3 (8001-R), pTyr705-STAT3 (7993) from Santa Cruz; Sonic Hedgehog (R&D, AF464), nucleostemin (McKay Lab), Hes3 (Chemicon, AB5706), α-tubulin (Sigma, T-6074).
To determine whether in the hES system JAK inhibition reduced p38 activity, cells were treated in the absence of MEF with JAK inhibitor for different times and assayed for p38 phosphorylation.
The test system of the next test is H1 hES cells. Kind of test: hES colony number formation, H1. The class given is cell-based, human. The note with it: H1 line.
Source text: as §1, §2

In the case of “Delta-4: soluble Notch ligand Delta-4 (1389-D4) from R&D”, in the test on Notch1, the “Notch ICD” value is reported as “Low”. The “Cell #” value in test [1] was “High”. The “colonies containing neurons, astrocytes, and oligodendrocytes” value in test [2] was “generated significantly more of these colonies”.
Take `CC(C)(C)c1nc2c3ccc(F)cc3c3c(=O)[nH]ccc3c2[nH]1` [JAK Inhibitor, 2-(1,1-Dimethylethyl)-9-fluoro-3,6-dihydro-7H-benz[h]-imidaz[4,5-f]isoquinolin-7-one]: the “morphology and antigenic profile” value in the test with HSF6 hES cells is “retained normal morphology and antigenic profile of undifferentiated hES cells”. The colony number formation in the test with H9 hES cells was 347.6%±59.5; in the test on H1 hES cells, 448.5%±57.4. Further, the p38 phosphorylation entry in test [3] was “significantly reduced p38 phosphorylation”.
